From US5359121A, “Glycine derivative monosodium salt tetrahydrate” (Ono Pharmaceutical Co., Ltd., priority 1991, dated 1994)

Experiments:
[1] = Experiment of hygroscopicity; type: physicochemical; settings: exposure to air / 25° C., humidity of 75%
Description: The hygroscopicity of each compound was measured by the ratio of its weight to lapse of time.

SMILES	hygroscopicity (result in words) ([1]; listed as the monosodium salt of the compound of the formula (II), monosodium salt)	hygroscopicity (result in words) ([1]; monosodium salt)	toxicity (Toxicity)	hygroscopicity (result in words) [1]
CC(C)(C)C(=O)Oc1ccc(S(=O)(=O)Nc2ccccc2C(=O)NCC(=O)[O-])cc1.[Na+] [the comparison compound, N-[o-(p-pivaloyloxybenzenesulfonylamino)benzoyl]glycine monosodium salt]	hygroscopic	increased its weight with lapse of time		
CC(C)(C)C(=O)Oc1ccc(S(=O)(=O)Nc2ccccc2C(=O)NCC(=O)[O-])cc1.O.O.O.O.[Na+] [the present invention compound, N-[o-(p-pivaloyloxybenzenesulfonylamino)benzoyl]glycine monosodium salt tetrahydrate]			very low	no change of its weight
